Data: US12649722B2, “Herbicidal cinnoline derivatives” (SYNGENTA CROP PROTECTION AG, priority 2020, dated 2026)

How the values were obtained:
Format in all cases: in vivo
Lolium perenne (LOLPE) [1] = assay: Post-emergence Test, LOLPE; settings: sprayed after 8 days cultivation, 1000 g/ha, evaluated after 13 days
Description: (§1) Seeds of a variety of test species are sown in standard soil in pots (Amaranthus retoflexus (AMARE), Solarium nigrum (SOLNI), Setaria faberi (SETFA), Lolium perenne (LOLPE), Echinochloa crus-galli (ECHCG), Ipornoea hederacea (IPOHE)). After 8 days cultivation under controlled conditions in a glasshouse (at 24° C./16° C., day/night; 14 hours light; 65% humidity), the plants are sprayed with an aqueous spray solution derived from the formulation of the technical active ingredient in acetone/water (50:50) solution containing 0.5% Tween 20 (polyoxyethylene sorbitan monolaurate, CAS RN 9005-64-5). Compounds are applied at 1000 g/ha unless otherwise stated. The test plants are then grown in a glasshouse under controlled conditions in a glasshouse (at 24° C./16° C., day/night; 14 hours light; 65% humidity) and watered twice daily. After 13 days the test is evaluated for the percentage damage caused to the plant. The biological activities are shown in the following table on a five-point scale (5=81-100%; 4=61-80%; 3=41-60%; 2=21-40%; 1=10-20%; 0=0%; −=not tested).

Lolium perenne (LOLPE) [2] = assay: Pre-emergence Test, LOLPE; settings: 1000 g/ha, evaluated after 13 days
[3] = test system: Ipornoea hederacea (IPOHE); assay: Pre-emergence Test, IPOHE; settings: 1000 g/ha, evaluated after 13 days
ABUTH [4] = assay: Pre-emergence Test, ABUTH; settings: 1000 g/ha, evaluated after 13 days
ZEAMX [5] = assay: Pre-emergence Test, ZEAMX; settings: 1000 g/ha, evaluated after 13 days
Setaria faberi (SETFA) [6] = assay: Post-emergence Test, SETFA; settings: sprayed after 8 days cultivation, 1000 g/ha, evaluated after 13 days
Method in brief: (§2)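 Pots sown with AMARE, SOLNI, SETFA, LOLPE, ECHCG, IPOHE, kept in glasshouse (24/16 °C, 14 h light, 65% humidity), sprayed at 1000 g/ha unless stated, in acetone/water 50:50 with 0.5% Tween 20. Damage scored after 13 days on a 0–5 scale (5=81–100%, 0=0%).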

ABUTH [7] = assay: Post-emergence Test, ABUTH; settings: sprayed after 8 days cultivation, 1000 g/ha, evaluated after 13 days
[8] = test system: Amaranthus retoflexus (AMARE); assay: Pre-emergence Test, AMARE; settings: 1000 g/ha, evaluated after 13 days
Solarium nigrum (SOLNI) [9] = assay: Pre-emergence Test, SOLNI; settings: 1000 g/ha, evaluated after 13 days
[10] = test system: Amaranthus retoflexus (AMARE); assay: Post-emergence Test, AMARE; settings: sprayed after 8 days cultivation, 1000 g/ha, evaluated after 13 days
Method in brief: as §2

Solarium nigrum (SOLNI) [11] = assay: Post-emergence Test, SOLNI; settings: sprayed after 8 days cultivation, 1000 g/ha, evaluated after 13 days
Description: as §1

ZEAMX [12] = assay: Post-emergence Test, ZEAMX; settings: sprayed after 8 days cultivation, 1000 g/ha, evaluated after 13 days
Setaria faberi (SETFA) [13] = assay: Pre-emergence Test, SETFA; settings: 1000 g/ha, evaluated after 13 days
[14] = test system: Ipornoea hederacea (IPOHE); assay: Post-emergence Test, IPOHE; settings: sprayed after 8 days cultivation, 1000 g/ha, evaluated after 13 days
Method in brief: as §2

[15] = test system: Echinochloa crus-galli (ECHCG); assay: Post-emergence Test, ECHCG; settings: sprayed after 8 days cultivation, 1000 g/ha, evaluated after 13 days
Method in brief: as §2

[16] = test system: Echinochloa crus-galli (ECHCG); assay: Pre-emergence Test, ECHCG; settings: 1000 g/ha, evaluated after 13 days

SMILES	percentage damage caused to the plant, LOLPE (Lolium perenne (LOLPE) [1])	percentage damage caused to the plant, LOLPE (Lolium perenne (LOLPE) [2])	percentage damage caused to the plant, IPOHE [3]	percentage damage caused to the plant, ABUTH (ABUTH [4])	percentage damage caused to the plant, ZEAMX (ZEAMX [5])	percentage damage caused to the plant, SETFA (Setaria faberi (SETFA) [6])	percentage damage caused to the plant, ABUTH (ABUTH [7])	percentage damage caused to the plant, AMARE [8]	percentage damage caused to the plant, SOLNI (Solarium nigrum (SOLNI) [9])	percentage damage caused to the plant, AMARE [10]	percentage damage caused to the plant, SOLNI (Solarium nigrum (SOLNI) [11])	percentage damage caused to the plant, ZEAMX (ZEAMX [12])	percentage damage caused to the plant, SETFA (Setaria faberi (SETFA) [13])	percentage damage caused to the plant, IPOHE [14]	percentage damage caused to the plant, ECHCG [15]	percentage damage caused to the plant, ECHCG [16]
CO/N=C(\C)c1cccc2c1c(=O)c(C(=O)O)nn2-c1ccc(OC(F)(F)F)cc1 [Compound P2, 5-[(E)-N-methoxy-C-methyl-carbonimidoyl]-4-oxo-1-[4-(trifluoromethoxy)phenyl] cinnoline-3-carboxylic acid]	3 (3=41-60%)	4 (4=61-80%)	2 (2=21-40%)	3 (3=41-60%)	4 (4=61-80%)	4 (4=61-80%)	4 (4=61-80%)	0 (0=0%)	2 (2=21-40%)	1 (1=10-20%)	2 (2=21-40%)	3 (3=41-60%)	5 (5=81-100%)	3 (3=41-60%)	4 (4=61-80%)	5 (5=81-100%)
O=C(O)c1nn(-c2ccc(Cl)cc2)c2cccc(Oc3ccc(F)cc3)c2c1=O [Compound P11, 1-(4-chlorophenyl)-5-(4-fluorophenoxy)-4-oxo-cinnoline-3-carboxylic acid]	0 (0=0%)	0 (0=0%)	0 (0=0%)	–	–	0 (0=0%)	–	3 (3=41-60%)	5 (5=81-100%)	5 (5=81-100%)	1 (1=10-20%)	–	0 (0=0%)	0 (0=0%)	0 (0=0%)	0 (0=0%)
CC(=O)c1cccc2c1c(=O)c(C(=O)O)nn2-c1ccc(OC(F)(F)F)cc1 [Compound P10, 5-acetyl-4-oxo-1-[4-(trifluoromethoxy)phenyl] cinnoline-3-carboxylic acid]	4 (4=61-80%)	4 (4=61-80%)	0 (0=0%)	–	–	4 (4=61-80%)	–	1 (1=10-20%)	1 (1=10-20%)	1 (1=10-20%)	4 (4=61-80%)	–	5 (5=81-100%)	4 (4=61-80%)	4 (4=61-80%)	5 (5=81-100%)
O=C(O)c1nn(-c2ccc(OC(F)(F)F)cc2)c2cccc(-c3ncco3)c2c1=O [Compound P5, 5-oxazol-2-yl-4-oxo-1-[4-(trifluoromethoxy)phenyl] cinnoline-3-carboxylic acid]	2 (2=21-40%)	0 (0=0%)	0 (0=0%)	–	–	4 (4=61-80%)	–	0 (0=0%)	0 (0=0%)	1 (1=10-20%)	2 (2=21-40%)	–	1 (1=10-20%)	0 (0=0%)	3 (3=41-60%)	0 (0=0%)
CO/N=C(\C)c1cccc2c1c(=O)c(C(=O)OC)nn2-c1ccc(OC(F)(F)F)cc1 [Compound P1, methyl 5-[(E)-N-methoxy-C-methyl-carbonimidoyl]-4-oxo-1-[4-(trifluoromethoxy)phenyl] cinnoline-3-carboxylate]	4 (4=61-80%)	4 (4=61-80%)	1 (1=10-20%)	–	–	4 (4=61-80%)	–	1 (1=10-20%)	1 (1=10-20%)	2 (2=21-40%)	3 (3=41-60%)	–	5 (5=81-100%)	2 (2=21-40%)	5 (5=81-100%)	5 (5=81-100%)
COC(=O)c1nn(-c2ccc(OC(F)(F)F)cc2)c2cccc(C#N)c2c1=O [Compound P7, methyl 5-cyano-4-oxo-1-[4-(trifluoromethoxy)phenyl] cinnoline-3-carboxylate]	0 (0=0%)	0 (0=0%)	0 (0=0%)	–	–	1 (1=10-20%)	–	0 (0=0%)	0 (0=0%)	1 (1=10-20%)	2 (2=21-40%)	–	1 (1=10-20%)	0 (0=0%)	1 (1=10-20%)	2 (2=21-40%)
C=C(OC)c1cccc2c1c(=O)c(C(=O)OC)nn2-c1ccc(OC(F)(F)F)cc1 [Compound P4, methyl 5-(1-methoxyvinyl)-4-oxo-1-[4-(trifluoromethoxy)phenyl] cinnoline-3-carboxylate]	4 (4=61-80%)	5 (5=81-100%)	0 (0=0%)	–	–	4 (4=61-80%)	–	0 (0=0%)	0 (0=0%)	0 (0=0%)	0 (0=0%)	–	5 (5=81-100%)	4 (4=61-80%)	4 (4=61-80%)	5 (5=81-100%)
COC(=O)c1nn(-c2ccc(OC(F)(F)F)cc2)c2cccc(-c3ccc(F)cc3)c2c1=O [Compound P6, methyl 5-(4-fluorophenyl)-4-oxo-1-[4-(trifluoromethoxy)phenyl] cinnoline-3-carboxylate]	0 (0=0%)	0 (0=0%)	0 (0=0%)	–	–	0 (0=0%)	–	0 (0=0%)	0 (0=0%)	0 (0=0%)	0 (0=0%)	–	0 (0=0%)	0 (0=0%)	0 (0=0%)	0 (0=0%)
O=C(O)c1nn(-c2ccc(OC(F)(F)F)cc2)c2cccc(-n3cc(C(F)(F)F)nn3)c2c1=O [Compound P21, 4-oxo-1-[4-(trifluoromethoxy)phenyl]-5-[4-(trifluoromethyl)triazol-1-yl]cinnoline-3-carboxylic acid]	–	–	1 (1=10-20%)	0 (0=0%)	0 (0=0%)	2 (2=21-40%)	1 (1=10-20%)	1 (1=10-20%)	–	1 (1=10-20%)	–	1 (1=10-20%)	2 (2=21-40%)	0 (0=0%)	0 (0=0%)	1 (1=10-20%)
